Holding throughout (assay type): biochemical
For assay [1], the target named is T1, butyrylcholinesterase (BuChE) (Rattus norvegicus, UniProt Q9JKC1).
T1 construct: total cholinesterase (ChE) and butyrylcholinesterase (BuChE) activities in rat brain homogenates; from tissue; host or cells: brain homogenate (10% w/v) of adult Wistar rats
Description: Butyrylcholinesterase inhibition in rat brain homogenates (Ellman). The note with it: mean SEM, n=3 in triplicates. How it is done: Cholinesterase activity was determined in rat brain homogenate following incubation with varying concentrations of the multifunctional pro-chelators of the invention (also referred to herein as “carbamates”).
Ellman's colorimetric method was adapted for determination of total cholinesterase (ChE) and butyrylcholinesterase (BuChE) activities in rat brain homogenates. Brain tissue from adult Wistar rats was homogenized at 2% w/v (or 10% w/v, for BuChE) in 0.1 M sodium phosphate buffer, pH 7.4, with added NaCl 58.5 g/l and Triton X-100 0.05% v/v. Aliquots of homogenate (20 μl) were incubated with the test compounds for designed time intervals in phosphate buffer pH 7.4, before addition of 5,5′-dithiobis(2-nitrobenzoic) acid and either 1 mM acetylthiocholine iodide or 10 mM butyrylthiocholine iodide (Sigma, St. Louis, Mo.). The reaction was run at 37° C. in a final volume of […] in 96-well microplates and was followed at 412 nm for 5 min with a plate reader. In every experiment, cholinesterase-independent (nonspecific) substrate hydrolysis was determined by including one experimental group treated with tacrine 30 μM. Appropriate tissue and reagent blanks were also included. Reaction velocities were determined in three or four replicates per condition; these were averaged and expressed as percent activity relative to control (solvent), after subtracting the rate of nonspecific hydrolysis.
The results are the mean SEM, n=3 in triplicates. ND—not determined.
Background: Ellman's reagent forms a yellow product with free thiols.

Assay [2] deals with T2, rat brain cholinesterase (total ChE) (Rattus norvegicus, UniProt P37136).
T2 construct: rows headed: Ki (dissociation constant for EI); other: rat brain total ChE; mean of 3-4 experiments; k+2 (carbamylation rate constant); other: from ki; rate of carba
T2 sequence (P37136 32-614): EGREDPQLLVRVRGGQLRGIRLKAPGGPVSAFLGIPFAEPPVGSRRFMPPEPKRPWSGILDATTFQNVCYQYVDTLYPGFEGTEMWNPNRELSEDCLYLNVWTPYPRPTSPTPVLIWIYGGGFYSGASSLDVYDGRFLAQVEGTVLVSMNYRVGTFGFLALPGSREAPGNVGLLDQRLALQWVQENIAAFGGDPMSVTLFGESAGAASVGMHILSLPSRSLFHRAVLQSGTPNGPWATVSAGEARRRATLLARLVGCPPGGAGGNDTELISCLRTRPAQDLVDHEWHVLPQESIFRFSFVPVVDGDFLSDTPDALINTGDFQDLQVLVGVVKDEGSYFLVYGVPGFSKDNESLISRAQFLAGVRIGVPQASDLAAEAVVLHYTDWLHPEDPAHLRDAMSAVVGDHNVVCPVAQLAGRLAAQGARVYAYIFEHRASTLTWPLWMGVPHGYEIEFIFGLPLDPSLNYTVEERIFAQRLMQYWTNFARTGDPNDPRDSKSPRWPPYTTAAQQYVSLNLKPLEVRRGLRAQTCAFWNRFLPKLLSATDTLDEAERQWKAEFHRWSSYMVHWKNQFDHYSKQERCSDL
The experiment in a line: Kinetics of irreversible cholinesterase inhibition (Kitz-Wilson). The note with it: for kinact: pH 7.4, read-out: k+2 (carbamylation rate constant); for kinact/KI: pH 7.4, read-out: ki (second-order rate inhibition constant, approximated by k+2/Ki). The protocol: To determine kinetic constants of irreversible inhibition, cholinesterase from rat brain homogenates was incubated with the multifunctional compounds of the invention for designed time intervals in phosphate buffer pH 7.4.
The residual cholinesterase activity was immediately measured with the Ellman's colorimetric method after addition of 5,5′-dithiobis(2-nitrobenzoic) acid and 1 mM acetylthiocholine iodide. The inhibition kinetics were assessed according to Kitz-Wilson equation:
[formula] wherein: E represents the enzyme; I represents the intact carbamate (inhibitor); EI is the initial reversible enzyme complex; E* is the carbamylated enzyme; Ki represents the dissociation constant for EI; k+2 is the carbamylation rate constant and k+3 is the decarbamylation rate constant; kapp is the pseudo-first-order inhibition rate constant; ki, the second-order rate inhibition constant, is approximated by k+2/Ki. Under experimental condition [I]>>[E0].
According to equation (2), the logarithm of the ratio of the residual cholinesterase activity (E) and the initial cholinesterase activity (E0) is plotted against the time of incubation. The slopes of the lines representing kapp were determined by linear regression.
The slopes of the lines represent the pseudo-first-order inhibition rate constant (kapp) determined from linear regression analysis. […] The carbamylation rate constant (k+2) was obtained from the y-intercept, and the dissociation constant ([…] was obtained from the slope of the line multiplied by k+2 as described in Materials and Methods.
From these lines, the values of kapp were calculated based on Equation (2) of the Kitz-Wilson equations (see Material and Methods). […] The carbamylation rate constant k+2 is a measure of inactivation of ChE.

For assay [3], the system named is ChE from rat brain homogenates. The experiment in a line: Time course of total ChE inhibition at 1 μM versus rivastigmine. The following applies: for preincubation time to maximum (peak) inhibition on total ChE: 1 μM compound; for ChE inhibition compared with rivastigmine and other carbamates: 1 μM, time course. How it is done: The new carbamates of the present invention are expected to act as rivastigmine and inhibit ChE activity. […] Enzyme activity was determined with Ellman's colorimetric method after addition of substrate, and the results are shown in FIGS. 8A-8B.

T1 sequence (Q9JKC1 24-597): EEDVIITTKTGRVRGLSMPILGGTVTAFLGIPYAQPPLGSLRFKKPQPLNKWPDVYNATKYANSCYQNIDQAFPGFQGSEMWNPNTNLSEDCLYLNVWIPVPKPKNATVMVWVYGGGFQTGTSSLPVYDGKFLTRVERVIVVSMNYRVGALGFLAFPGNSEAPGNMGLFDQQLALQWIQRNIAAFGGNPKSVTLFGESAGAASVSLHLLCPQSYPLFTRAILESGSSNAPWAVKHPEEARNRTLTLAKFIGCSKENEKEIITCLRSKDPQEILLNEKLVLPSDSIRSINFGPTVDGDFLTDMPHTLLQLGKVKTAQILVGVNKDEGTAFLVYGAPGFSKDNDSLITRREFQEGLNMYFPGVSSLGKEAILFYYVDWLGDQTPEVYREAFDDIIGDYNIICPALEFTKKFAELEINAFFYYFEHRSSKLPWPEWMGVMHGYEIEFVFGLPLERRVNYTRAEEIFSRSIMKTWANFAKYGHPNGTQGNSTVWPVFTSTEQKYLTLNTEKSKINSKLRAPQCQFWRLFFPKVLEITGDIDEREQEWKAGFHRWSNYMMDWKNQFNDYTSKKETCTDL

By IC50 is commonly meant the concentration at which inhibition is half-maximal. Lower therefore signals higher potency. The molecule `C#CCN(C)Cc1ccc(OC(=O)N(C)CC)c2ncccc12` [Compound 3, 5-((methyl(propargyl)amino)methyl)quinolin-8-yl ethyl(methyl)carbamate] registered an IC50 in assay [1] of 60.7 ± 5.33 µM. Further, in assay [2], the kinact was 0.0045 s⁻¹ and the kinact/KI was 39 M⁻¹ s⁻¹. Besides, in assay [3], the “preincubation time to maximum (peak) inhibition on total ChE” value is at most 1.5 h; the “ChE inhibition compared with rivastigmine and other carbamates” value is listed as “far less potent than the other carbamates”.
With `C#CCN(C)Cc1ccc(OC(=O)N2CCCC2)c2ncccc12` [Compound 5, 5-((methyl(propargyl)amino)methyl)quinolin-8-yl pyrrolidine-1-carboxylate], 31.2 ± 6.1 µM corresponded to half-maximal inhibition in assay [1] (IC50). For the same molecule, in assay [2] (from ki), the “potency in inhibiting ChE relative to rivastigmine” value is “half potent”. In assay [2], the kinact was 0.00283 s⁻¹ and the kinact/KI is 41 M⁻¹ s⁻¹. Moreover, in assay [3], the “preincubation time to maximum (peak) inhibition on total ChE” value is at most 3 h; the “ChE inhibition compared with rivastigmine and other carbamates” value is on record as “far less potent than the other carbamates”.
The molecule `C#CCN(C)Cc1ccc(OC(=O)N2CCN(Cc3ccccc3)CC2)c2ncccc12` [Compound 13, 5-((methyl(propargyl)amino)methyl)quinolin-8-yl 4-benzyl piperazine-1-carboxylate] showed an IC50 in assay [1] of 46 ± 3.5 µM. For the same molecule, in assay [2], the kinact was 0.00167 s⁻¹ and the kinact/KI was 168 M⁻¹ s⁻¹. Besides, the “ChE inhibition compared with rivastigmine and other carbamates” value in assay [3] was “as potent as rivastigmine”.
Take `C#CCC1CCN(Cc2ccc(OC(=O)N(C)C)c3ncccc23)CC1` [Compound 23, 5-((4-(propargyl)piperidin-1-yl)methyl)quinolin-8-yl dimethylcarbamate]: the IC50 in assay [1] came out at 42.6 ± 6.67 µM. Also, in assay [2], the kinact is 0.00233 s⁻¹ and the kinact/KI is 242 M⁻¹ s⁻¹. Besides, in assay [3], the “preincubation time to maximum (peak) inhibition on total ChE” value came out at 2 h; the “ChE inhibition compared with rivastigmine and other carbamates” value is “increasingly greater inhibition”.

These data come from US8802675B2, “Neuroprotective multifunctional compounds and pharmaceutical compositions comprising them” (priority 2009, dated 2014).
